Data taken from paper PMC9774648, “Synthesis, Physicochemical Properties and Molecular Docking of New Benzothiazole Derivatives as Antimicrobial Agents Targeting DHPS Enzyme” (Antibiotics, 2022).
Values after ≈ are worked out from the molar mass of the structure shown. Where two headings read alike, the source gives them in different places.

Legend:
[1] = system: P. aeruginosa (ATCC: 27853); assay: Agar well diffusion, inhibition zone, P. aeruginosa; type: cell-based; details: agar well diffusion, 15 mg/mL, 100 μL per well, 37 °C 24 h, mean ± SD, triplicate; for zone of inhibition at 15000 µg/mL: Pseudomonas aeruginosa, read-out: Diameter of the Inhibition Zone, P. aeruginosa
[2] = system: K. pneumonia (ATCC: 4415); assay: Agar well diffusion, inhibition zone, K. pneumonia; type: cell-based; details: agar well diffusion, 15 mg/mL, 100 μL per well, 37 °C 24 h, mean ± SD, triplicate
[3] = system: S. aureus; assay: MIC, twofold serial dilution, S. aureus; type: cell-based; details: Staphylococcus aureus; twofold serial dilution in broth, 37 °C 16–20 h; read-out: The Minimum Inhibitory Concentration (MIC), S. aureus
Description: The new synthetic compounds, 6a–c, 12a–c, 14a–c, 16a–c and 19a–e, were tested in vitro to evaluate antibacterial activities against Gram-negative and Gram-positive bacteria, such as E. coli (ATCC: 3008), K. pneumonia (ATCC: 4415) and P. aeruginosa (ATCC: 27853), as an example for Gram-negative bacteria, as well as S. aureus (ATCC: 6538) and S. mutans (ATCC: 25175) for Gram-positive bacteria. The antifungal activities were evaluated also for the novel compounds in vitro against C. albicans (ATCC: 10231). The antibacterial and antifungal activities were determined by the agar-diffusion method using gentamicin, ampicillin and sulfadiazine, example of sulfa drug, as standard drugs against Gram-negative and Gram-positive, while nystatin was used as standard drug against the fungal strain. Table 1 summarizes the results for all tested compounds as the average diameter of inhibition zones of microbial growth around the discs in mm ± SD.
For each strain, three to five isolated colonies were selected from the fresh agar plate and were transferred into a tube containing 3–4 mL of sterile broth medium. The bacterial suspension was mixed well and incubated at 35–37 °C for 2–6 h. The turbidity of the bacterial suspension should be equal to or greater than the turbidity of a McFarland Standard 0.5. After that, 1 mg of the tested compound (antimicrobial agent) was dissolved in 1 mL DMSO and two-fold serial dilution was done using broth medium. A fixed volume of the prepared bacterial inoculum was added to each tube and incubated for at 37 °C 16–20 h. The MIC is defined as the lowest concentration of the antimicrobial agent that inhibits visible growth of the tested isolate as observed with the unaided eye.

[4] = system: S. mutans; assay: MIC, twofold serial dilution, S. mutans; type: cell-based; details: Streptococcus mutans, read-out: The Minimum Inhibitory Concentration (MIC), S. mutans
[5] = system: E. coli (ATCC: 3008); assay: Agar well diffusion, inhibition zone, E. coli; type: cell-based; details: agar well diffusion, 15 mg/mL, 100 μL per well, 37 °C 24 h, mean ± SD, triplicate
[6] = system: S. mutans (ATCC: 25175); assay: Agar well diffusion, inhibition zone, S. mutans; type: cell-based; details: for zone of inhibition at 15000 µg/mL: Streptococcus mutans, read-out: Diameter of the Inhibition Zone, S. mutans
[7] = system: S. aureus (ATCC: 6538); assay: Agar well diffusion, inhibition zone, S. aureus; type: cell-based; details: for zone of inhibition at 15000 µg/mL: Staphylococcus aureus, read-out: Diameter of the Inhibition Zone, S. aureus
[8] = system: C. albicans (ATCC: 10231); assay: Agar well diffusion, inhibition zone, C. albicans; type: cell-based; details: 15 mg/mL, 100 μL per well, mean ± SD, triplicate; for zone of inhibition at 15000 µg/mL: Candida albicans, read-out: Diameter of the Inhibition Zone, C. albicans
[9] = system: P. aeruginosa; assay: MIC, twofold serial dilution, P. aeruginosa; type: cell-based; details: Pseudomonas aeruginosa; twofold serial dilution in broth, 37 °C 16–20 h; read-out: The Minimum Inhibitory Concentration (MIC), P. aeruginosa
[10] = molecular target: DHPS enzyme (dihydropteroate synthase) (Bacillus anthracis, UniProt Q81VW8); assay: biochemical; details: for inhibition at 0.1 µg/mL: 0.1 μg/mL; for inhibition at 0.1 µg/mL / inhibition at 1 µg/mL / inhibition at 10 µg/mL / inhibition at 100 µg/mL: read-out: Inhibition % against DHPS enzyme; for inhibition at 1 µg/mL: 1 μg/mL; for inhibition at 10 µg/mL: 10 μg/mL; for inhibition at 100 µg/mL: 100 μg/mL
[11] = twofold serial dilution in broth, 37 °C 16–20 h
[12] = agar well diffusion, 15 mg/mL, 100 μL per well, 37 °C 24 h, mean ± SD, triplicate

Chain of DHPS enzyme (dihydropteroate synthase) (Q81VW8 1-280): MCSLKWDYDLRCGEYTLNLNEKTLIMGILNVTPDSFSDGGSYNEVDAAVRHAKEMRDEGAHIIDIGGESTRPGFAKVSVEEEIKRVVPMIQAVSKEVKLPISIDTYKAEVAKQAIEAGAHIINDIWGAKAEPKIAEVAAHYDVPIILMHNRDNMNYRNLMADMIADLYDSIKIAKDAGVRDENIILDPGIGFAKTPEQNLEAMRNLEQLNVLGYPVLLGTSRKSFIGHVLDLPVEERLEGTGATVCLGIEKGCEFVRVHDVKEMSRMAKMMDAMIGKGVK

Cc1ccc(S(=O)(=O)NNC(=O)/C(=C/c2ccc(F)cc2)c2nc3ccccc3s2)cc1 [Compound 14a]
Diameter of the Inhibition Zone, P. aeruginosa [1]: - | Diameter of the Inhibition Zone, K. pneumonia [2]: - | MIC [3]: 1070 µM (≈ 500 µg/mL) | MIC [4, 11]: 2140 µM (≈ 1000 µg/mL) | Diameter of the Inhibition Zone, E. coli [5]: - | melting point: 201 to 202 °C | zone of inhibition at 15000 µg/mL [6, 12]: 18.3 ± 0.6 mm | zone of inhibition at 15000 µg/mL [7, 12]: 19.3 ± 0.6 mm | zone of inhibition at 15000 µg/mL [8]: 20.6 ± 0.6 mm

Cc1ccc(S(=O)(=O)NNC(=O)/C(=N/Nc2ccc(Cl)cc2)c2nc3ccccc3s2)cc1 [Compound 19d, N′-(2-(Benzo[d]thiazol-2-yl)-2-(2-(4-chlorophenyl)hydrazono)acetyl)-4-methylbenzenesulfono-hydrazide]
zone of inhibition at 15000 µg/mL [1]: 21.6 ± 0.6 mm | Diameter of the Inhibition Zone, K. pneumonia [2]: - | Diameter of the Inhibition Zone, E. coli [5]: - | melting point: 280 to 281 °C | Diameter of the Inhibition Zone, S. mutans [6, 12]: - | MIC [9]: 500 µM (≈ 250 µg/mL) | Diameter of the Inhibition Zone, S. aureus [7, 12]: -

Cc1ccc(NN=C(C(=O)NNS(=O)(=O)c2ccccc2)c2nc3ccccc3s2)cc1 [Compound 19c, N′-(2-(Benzo[d]thiazol-2-yl)-2-(2-(4-methylphenyl)hydrazono)acetyl)benzene-sulfonohydrazide]
zone of inhibition at 15000 µg/mL [1]: 16 ± 1 mm | Diameter of the Inhibition Zone, K. pneumonia [2]: - | Diameter of the Inhibition Zone, E. coli [5]: - | melting point: 262 to 263 °C | Diameter of the Inhibition Zone, S. mutans [6, 12]: - | MIC [9]: 2150 µM (≈ 1000 µg/mL) | zone of inhibition at 15000 µg/mL [7, 12]: 11 ± 1 mm | zone of inhibition at 15000 µg/mL [8]: 11.6 ± 0.5 mm

Nc1c(C(=O)Nc2ccccc2)cc(-c2nc3ccccc3s2)c(=O)n1NS(=O)(=O)c1ccc(Cl)cc1 [Compound 6a, 2-Amino-5-(benzo[d]thiazole-2-yl)-1-(4-chlorophenylsulfonamido)-6-oxo-N-phenyl-1,6-dihydropyridine-3–carboxamide]
Diameter of the Inhibition Zone, P. aeruginosa [1]: - | Diameter of the Inhibition Zone, K. pneumonia [2]: ^a - | MIC [3]: 906 µM (≈ 500 µg/mL) | Diameter of the Inhibition Zone, E. coli [5]: - | zone of inhibition at 15000 µg/mL [6, 12]: 12.3 ± 0.6 mm | zone of inhibition at 15000 µg/mL [7, 12]: 19.6 ± 0.6 mm

CC1(C)S[C@@H]2[C@H](NC(=O)[C@H](N)c3ccccc3)C(=O)N2[C@H]1C(=O)O [Ampicillin, reference compound]
MIC [3]: 179 µM (≈ 62.5 µg/mL) | MIC [4]: 179 µM (≈ 62.5 µg/mL) | zone of inhibition at 15000 µg/mL ([6]; 24 h): 30 ± 0.5 mm | zone of inhibition at 15000 µg/mL ([7]; 24 h): 22 ± 0.1 mm

Nc1c(C(=O)Nc2ccc(Cl)cc2)cc(-c2nc3ccccc3s2)c(=O)n1NS(=O)(=O)c1ccc(Cl)cc1 [Compound 6b, 2-Amino-5-(benzo[d]thiazole-2-yl)-N-(4-chlorophenyl)-1-(4-chlorophenylsulfonamido)-6-oxo-1,6-dihydropyridine-3–carboxamide]
Diameter of the Inhibition Zone, P. aeruginosa [1]: - | Diameter of the Inhibition Zone, K. pneumonia [2]: - | MIC [3]: 1700 µM (≈ 1000 µg/mL) | MIC [4, 11]: 1700 µM (≈ 1000 µg/mL) | Diameter of the Inhibition Zone, E. coli [5]: - | melting point: 334 to 336 °C | zone of inhibition at 15000 µg/mL [6, 12]: 15.3 ± 0.5 mm | zone of inhibition at 15000 µg/mL [7, 12]: 18.3 ± 0.6 mm

O=c1[nH]c(-c2ccc(Cl)cc2)ccc1-c1nc2ccccc2s1 [Compound 12a, 3-(Benzo[d]thiazol-2-yl)-6-(4-chlorophenyl)pyridin-2(1H)-one]
Diameter of the Inhibition Zone, P. aeruginosa [1]: - | Diameter of the Inhibition Zone, K. pneumonia [2]: - | MIC [3]: 369 µM (≈ 125 µg/mL) | Diameter of the Inhibition Zone, E. coli [5]: - | Diameter of the Inhibition Zone, S. mutans [6, 12]: - | IC50 [10]: 83.6 µM | inhibition at 0.1 µg/mL [10]: 11% | inhibition at 1 µg/mL [10]: 27% | inhibition at 10 µg/mL [10]: 44% | inhibition at 100 µg/mL [10]: 58% | zone of inhibition at 15000 µg/mL [7, 12]: 19.6 ± 0.6 mm

C[C@@H]1[C@H](O)[C@@H](C)/C=C/C=C/CC/C=C/C=C/C=C/C=C/C(O[C@H]2O[C@H](C)[C@@H](O)[C@H](N)[C@@H]2O)CC2O[C@](O)(CC(O)C(O)CCC(O)CC(O)CC(O)CC(=O)O[C@H]1C)CC(O)C2C(=O)O (stereo partly drawn) [Nystatin, reference compound]
Diameter of the Inhibition Zone, C. albicans [8]: 21.0 ± 0.5 mm

Cc1ccc(/C=C(/C(=O)NNS(=O)(=O)c2ccc(C)cc2)c2nc3ccccc3s2)cc1 [Compound 14c, N-(2-(Benzo[d]thiazole-2-yl)-3-(p-tolyl)acryloyl)-4-methylbenzene-sulfonohydrazide]
Diameter of the Inhibition Zone, P. aeruginosa [1]: - | Diameter of the Inhibition Zone, K. pneumonia [2]: - | MIC [3]: 135 µM (≈ 62.6 µg/mL) | MIC [4, 11]: 539 µM (≈ 250 µg/mL) | Diameter of the Inhibition Zone, E. coli [5]: - | melting point: 195 to 196.5 °C | zone of inhibition at 15000 µg/mL [6, 12]: 20.3 ± 0.6 mm | IC50 [10]: 56.4 µM | inhibition at 0.1 µg/mL [10]: 8.6% | inhibition at 1 µg/mL [10]: 21% | inhibition at 10 µg/mL [10]: 46% | inhibition at 100 µg/mL [10]: 59% | zone of inhibition at 15000 µg/mL [7, 12]: 30.3 ± 0.6 mm | zone of inhibition at 15000 µg/mL [8]: 11.3 ± 0.5 mm

Cc1ccc(NC(=O)c2cc(-c3nc4ccccc4s3)c(=O)n(NS(=O)(=O)c3ccc(Cl)cc3)c2N)cc1 [Compound 6c, 2-Amino-5-(benzo[d]thiazole-2-yl)-1-(4-chlorophenylsulfonamido)-6-oxo-N-(p-tolyl)-1,6-dihydropyridine-3–carboxamide]
Diameter of the Inhibition Zone, P. aeruginosa [1]: - | Diameter of the Inhibition Zone, K. pneumonia [2]: - | Diameter of the Inhibition Zone, E. coli [5]: - | melting point: 302 to 305 °C | zone of inhibition at 15000 µg/mL [6, 12]: 10.6 ± 0.5 mm | zone of inhibition at 15000 µg/mL [7, 12]: 10.6 ± 0.5 mm

O=c1[nH]c(-c2ccc(Br)cc2)ccc1-c1nc2ccccc2s1 [Compound 12b, 3-(Benzo[d]thiazol-2-yl)-6-(4-bromophenyl)pyridin-2(1H)-one]
Diameter of the Inhibition Zone, P. aeruginosa [1]: - | Diameter of the Inhibition Zone, K. pneumonia [2]: - | MIC [3]: 2610 µM (≈ 1000 µg/mL) | Diameter of the Inhibition Zone, E. coli [5]: - | melting point: 345 to 346 °C | Diameter of the Inhibition Zone, S. mutans [6, 12]: - | zone of inhibition at 15000 µg/mL [7, 12]: 17.6 ± 0.6 mm

COc1ccc(-c2ccc(-c3nc4ccccc4s3)c(=O)[nH]2)cc1 [Compound 12c, 3-(Benzo[d]thiazol-2-yl)-6-(4-methoxyphenyl)pyridin-2(1H)-one]
Diameter of the Inhibition Zone, P. aeruginosa [1]: - | Diameter of the Inhibition Zone, K. pneumonia [2]: - | Diameter of the Inhibition Zone, E. coli [5]: - | zone of inhibition at 15000 µg/mL [6, 12]: 11.3 ± 0.5 mm | zone of inhibition at 15000 µg/mL [7, 12]: 15.6 ± 0.5 mm

O=C(NNS(=O)(=O)c1ccccc1)C(=NNc1ccc(Cl)cc1)c1nc2ccccc2s1 [Compound 19b, N′-(2-(Benzo[d]thiazol-2-yl)-2-(2-(4-chlorophenyl)hydrazono)acetyl)benzene-sulfonohydrazide]
Diameter of the Inhibition Zone, P. aeruginosa [1]: - | Diameter of the Inhibition Zone, K. pneumonia [2]: - | Diameter of the Inhibition Zone, E. coli [5]: - | melting point: 265 to 267 °C | Diameter of the Inhibition Zone, S. mutans [6, 12]: - | zone of inhibition at 15000 µg/mL [7, 12]: 11.6 ± 0.5 mm

O=C(NNS(=O)(=O)c1ccccc1)/C(=N/Nc1ccccc1)c1nc2ccccc2s1 [Compound 19a, N′-(2-(Benzo[d]thiazol-2-yl)-2-(2-phenylhydrazono)acetyl)benzenesulfono-hydrazide]
Diameter of the Inhibition Zone, P. aeruginosa [1]: - | Diameter of the Inhibition Zone, K. pneumonia [2]: - | Diameter of the Inhibition Zone, E. coli [5]: - | melting point: 246 to 248.6 °C | Diameter of the Inhibition Zone, S. mutans [6, 12]: - | Diameter of the Inhibition Zone, S. aureus [7, 12]: - | zone of inhibition at 15000 µg/mL [8]: 10.3 ± 0.5 mm

Cc1ccc(N/N=C(/C(=O)NNS(=O)(=O)c2ccc(C)cc2)c2nc3ccccc3s2)cc1 [Compound 19e, N′-(2-(Benzo[d]thiazol-2-yl)-2-(2-(4-methylphenyl)hydrazono)acetyl)-4-methylbenzenesulfono-hydrazide]
Diameter of the Inhibition Zone, P. aeruginosa [1]: - | Diameter of the Inhibition Zone, K. pneumonia [2]: - | Diameter of the Inhibition Zone, E. coli [5]: - | melting point: 285 to 286 °C | Diameter of the Inhibition Zone, S. mutans [6, 12]: - | Diameter of the Inhibition Zone, S. aureus [7, 12]: -
